Assay results published in the supplement of paper PMC10307832.

Experiments:
Test in all cases: relative viability (nuclei count vs DMSO), 5 days (fraction); higher = more cells survive
[1] = compound: CNC(=O)c1ccccc1Sc1ccc2c(/C=C/c3ccccn3)n[nH]c2c1 [Axitinib] + Cc1nc(NC(=O)N2CCC[C@H]2C(N)=O)sc1-c1ccnc(C(C)(C)C(F)(F)F)c1 [Alpelisib] (partner 2 µM)
Summary of the method: (§1)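 The day after seeding in 1536-well plates, lung cancer cell lines were treated by pin tool with a single drug, or with a fixed anchor-drug dose together with five library-drug doses (not always all listed) in √10 steps. After 5 days, a combined fix-and-stain solution (final 0.05% Triton X-100, 1% formaldehyde, 1 ug/ml Hoechst) was added. Nuclei counted on 4× images gave relative viability as treated counts over vehicle counts, reported as the median of duplicate plates.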

[2] = compound: CNC(=O)c1ccccc1Sc1ccc2c(/C=C/c3ccccn3)n[nH]c2c1 [Axitinib] + CC1(C)CCC(c2ccc(Cl)cc2)=C(CN2CCN(c3ccc(C(=O)NS(=O)(=O)c4ccc(N[C@H](CCN5CCOCC5)CSc5ccccc5)c(S(=O)(=O)C(F)(F)F)c4)cc3)CC2)C1 [Navitoclax] (partner 0.5 µM)
Summary of the method: as §1

[3] = compound: Nc1nc(Nc2ccc3c(c2)CC[C@@H](N2CCCC2)CC3)nn1-c1cc2c(nn1)-c1ccccc1CCC2 [Bemcentinib] + CC(=O)Nc1cccc(-n2c(=O)n(C3CC3)c(=O)c3c(Nc4ccc(I)cc4F)n(C)c(=O)c(C)c32)c1 [Trametinib] (partner 0.02 µM)
Summary of the method: as §1

[4] = compound: CC1=CC=C(C=C1)C(=O)CN2C3=C(CCCC3)SC2=N [Pifithrin_alpha] + COc1cc2c(Oc3ccc(NC(=O)C4(C(=O)Nc5ccc(F)cc5)CC4)cc3F)ccnc2cc1OCCCN1CCOCC1 [Foretinib] (partner 0.25 µM)
Summary of the method: as §1

Cell Line	relative viability ([1]; first compound 0.005 µM)	relative viability ([1]; first compound 0.01581 µM)	relative viability ([1]; first compound 0.05 µM)	relative viability ([1]; first compound 0.1581 µM)	relative viability ([1]; first compound 0.5 µM)	relative viability ([2]; first compound 0.005 µM)	relative viability ([2]; first compound 0.01581 µM)	relative viability ([2]; first compound 0.05 µM)	relative viability ([2]; first compound 0.1581 µM)	relative viability ([2]; first compound 0.5 µM)	relative viability ([3]; first compound 0.04 µM)	relative viability ([3]; first compound 0.1265 µM)	relative viability ([3]; first compound 0.4 µM)	relative viability ([3]; first compound 1.265 µM)	relative viability ([3]; first compound 4 µM)	relative viability ([4]; first compound 1 µM)	relative viability ([4]; first compound 3.162 µM)	relative viability ([4]; first compound 10 µM)	relative viability ([4]; first compound 31.62 µM)	relative viability ([4]; first compound 100 µM)
HCC-44	0.842	0.881	0.873	0.834	0.89	1.04	1.06	0.99	0.939	1.12	1.11	1.13	1.06	1.18	1.18					
HCC-78	0.34	0.328	0.3	0.322	0.366	0.873	0.842	0.727	0.754	0.737	0.735	0.746	0.936	0.809	0.801	0.592	0.551	0.486	0.467	0.523
HCC-366	0.616	0.482	0.505	0.387	0.619	1.07	1.03	1.01	1.06	1.15	0.368	0.428	0.407	0.409	0.419	0.896	0.906	0.915		0.527
HCC-827	0.955	0.923	0.991	0.978	1.08	0.971	0.959	0.998	1.02	1	0.545	0.548	0.534	0.599	0.586	1.01	0.996	0.84	0.597	0.857
HOP-62	1.07	1.22	0.78	0.998	1.2	1.07	1.06	1.02	1.06	1.12	0.341	0.337	0.402	0.395	0.458	1.17	1.16	1.18	1.03	1.19
IA-LM	0.79	0.883	0.733	0.761	0.619	0.88	0.79	0.944	0.823	0.829						1.07	0.975	0.469	0.445	0.604
LC-2-ad	0.942	0.859	0.83	0.907	0.903	0.572	0.576	0.532	0.506	0.573	0.946	0.963	0.952	0.98	0.962		0.902	0.904		0.871
LCLC-97TM1	0.252	0.285	0.237	0.205	0.247	0.485	0.506	0.475	0.489	0.534	0.206	0.195	0.2	0.232	0.2	0.954	1.08	0.934	0.496	0.909
LCLC-103H	0.987	0.922	0.845	0.621	0.999						0.706	0.736	0.679	0.712	0.707	0.729	0.787	0.84	0.514	0.824
